Source: patent US8449930B2, “Drug or dermatological composition containing an avocado peptide extract for treating and preventing pruritus” (Laboratoires Expanscience, priority 2008, dated 2013)

Assays:
Type in all cases: cell-based
[1] = tested on: Rat peritoneal mast cells; assay: Release of histamine by mast cells induced by substance P
Experimental: (§1) The studies presented below were carried out on rat peritoneal mast cells. These cells have the same features as cutaneous mast cells and thus constitute an experimental model representative of human skin.
Rat peritoneal mast cells (10,000 cells in suspension/250 μl Tyrode's buffer) were incubated for […] at 37° C. in the presence or absence of 0.05%, 0.5% and 1% (w/v) avocado peptide extract, obtained in example 1, or 10 mM calcium, used as the reference histamine release inhibitor.
The cells were then stimulated for 10 minutes by 10 μM substance P (Neosystem) in the presence of 0.3 mM calcium.
The reaction was quenched by centrifugation and the supernatants and cell pellets were taken up in 0.8 N perchloric acid in order to assay histamine using the spectrofluorometric method.
The quantities of histamine released were expressed as a percentage of release (quantity in supernatants/total quantity).

[2] = tested on: Normal human epidermal keratinocytes (NHEK); assay: Synthesis of GAGs by keratinocytes (35S-sulfate incorporation); settings: 72 hours
Experimental: (§2) Normal human epidermal keratinocytes (NHEK) were pre-cultured for 24 hours at 37° C. and 5% CO2 in low-calcium (0.09 mM) SFM (Invitrogen) medium supplemented with 0.25 ng/ml EGF (Invitrogen), 25 μg/ml pituitary extract (Invitrogen) and 25 μg/ml gentamycin (Sigma).
(§3) The keratinocytes were then treated for 72 hours with the avocado peptide extract (0.05% DM and 0.005% DM), according to example 1, or by the references: 0.1 μM retinoic acid (Sigma) or 1.5 mM calcium (Prolabo). Two identical series were prepared in order to assay both the release/production of hyaluronic acid and the incorporation of […] in the GAGs fraction. The batch corresponding to the assay of the GAGs was supplemented with ^35S-sulfate (Amersham) after 48 hours of culture (labeling during the last 24 hours).
At the end of the treatment, in the batch corresponding to the assay of GAGs, the incorporated radioactivity was counted and thus the variation in the synthesis of GAGs in relation to the control was analyzed.
(§4) Intergroup comparisons were carried out by analysis of variance using Dunnett's multiple comparison test.

[3] = tested on: Rat peritoneal mast cells; assay: Release of tryptase by mast cells induced by calcium ionophore A23187; settings: 50 μM quercetin
Experimental: as §1
Rat peritoneal mast cells (2×10^3 cells/ml) were incubated for 30 minutes at 37° C. in the presence or absence of 0.005% (w/v) avocado peptide extract (obtained in example 1) or 50 μM quercetin (Sigma), the reference tryptase release inhibitor. The cells were then stimulated for 15 minutes by 0.5 μM calcium ionophore A23187 (Millipore). The calcium ionophore is used to induce the release of tryptase (it induces an influx and mobilization of intracellular calcium). The reaction was quenched by centrifugation at 4° C.
Tryptase release was evaluated by assaying tryptase in the cell pellets and supernatants by means of the Mast Cell Degranulation Assay Kit (Millipore). This test is based on the spectrophotometric detection of the chromophore p-nitroaniline (pNA) after cleavage of the tosyl-gly-pro-lys-pNA substrate by tryptase.

[4] = tested on: Normal human epidermal keratinocytes (NHEK); assay: Synthesis/release of hyaluronic acid by keratinocytes (ELISA); settings: 0.1 μM retinoic acid, 72 hours, culture supernatants
Experimental: as §2, §3
In the batch corresponding to the assay of hyaluronic acid, at the end of the treatment, the culture supernatants were collected and hyaluronic acid was assayed using a specific modified ELISA test (Biogenic).
as §4

[5] = tested on: PAR-2; assay: PAR-2 gene expression in reconstructed epidermises (cDNA arrays); settings: 1 μM retinoic acid, 6 hours
Experimental: Seventeen-day reconstructed epidermises (Skinethic) were treated systemically with 0.04% (w/v) avocado peptide extract (obtained in example 1) or 1 μM retinoic acid (Sigma, positive reference) for 6 hours.
Gene expression was analyzed using standard simplified DNA arrays. These microarrays involved spotting specific cDNA markers of interest on nylon membranes. Analysis was carried out according to a suitable miniaturized and optimized technology based on the use of messenger RNA and ^33P labeling.
When culturing was complete, the epidermises were rinsed with phosphate buffered saline (PBS) solution. The total RNA of the epidermises was then extracted and purified using TRI Reagent (Sigma) according to a standardized protocol. RNA quantity and quality were then evaluated using an Agilent 2100 bioanalyzer. The mRNA of each culture was reverse transcribed using oligo(dT) and a ^33P-labeled deoxyribonucleotide triphosphate. Multiple labeled cDNA “target” sequences were prepared for each culture. These targets were then hybridized, under optimized conditions, with cDNA “probes” in excess bound to membranes. After washing, the relative quantity of labeled target was measured by direct counting using a Phosphorlmager.
The membranes were analyzed using suitable software.

[Ca+2] [calcium]
Histamine (% release) Mean ([1]; 10 mM calcium (reference inhibitor), stimulated 10 min by 10 μM substance P): 16 % release
Percentage inhibition of histamine release ([1]; calcium, 10 μM in table 8, 10 mM in text, vs stimulated control (substance P)): −78%
Incorporation of 35S-sulfate (cpm) ([2]; 1.5 mM calcium): 17753 cpm

O=c1c(O)c(-c2ccc(O)c(O)c2)oc2cc(O)cc(O)c12 [quercetin]
Tryptase (ng/ml) Mean ([3]; 30 min preincubation, stimulated 15 min by 0.5 μM calcium ionophore A23187): 44 ng/mL
inhibition at 50 µM ([3]; Rattus norvegicus, Mast cell, vs stimulated control (Ca ionophore), read-out: Percentage inhibition of tryptase release): 47%

CC1=C(/C=C/C(C)=C/C=C/C(C)=C/C(=O)O)C(C)(C)CCC1 [retinoic acid]
HA [4]: 11503 ng/mL
PAR-2 (relative expression) Mean ([5]; systemic treatment): 3
Percentage inhibition of PAR-2 gene expression ([5]; vs control epidermises): −29%
Incorporation of 35S-sulfate (cpm) ([2]; 0.1 μM retinoic acid): 13217 cpm
Percentage (change in synthesis of GAGs vs control cells) ([2]; 0.1 μM retinoic acid): +18%
